According to ChEMBL document CHEMBL1201862, “PubChem BioAssay data set” (2004):
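Method: 48-hour compound exposure of cells in 96-well plates, five concentrations, linear interpolation of endpoints. Here, GI50 denotes the concentration required for 50% inhibition of growth.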 Activity calls are given as the source filed them. Rule as the data show it: active = GI50 up to about 1.1 µM and inactive = higher.

What was measured:
Test in all cases: NCI anticancer screen, dose series, 48 h
DLD-1 = test system: DLD-1
DMS-114 = test system: DMS-114
DMS-273 = test system: DMS-273
HOP-18 = test system: HOP-18
LXFL 529 = test system: LXFL 529
M19-MEL = test system: M19-MEL
RXF 631 = test system: RXF 631
SNB-78 = test system: SNB-78
XF498 = test system: XF498

Compound	GI50 (DLD-1)	GI50 (DMS-114)	GI50 (DMS-273)	GI50 (HOP-18)	GI50 (LXFL 529)	GI50 (M19-MEL)	GI50 (RXF 631)	GI50 (SNB-78)	GI50 (XF498)
CS(=O)(=O)ON1C(=O)c2ccc(N)cc2C1=O	> 65.8 µM (inactive)	> 74.5 µM (inactive)	> 100 µM (inactive)	> 100 µM (inactive)	> 78.5 µM (inactive)	> 59.8 µM (inactive)	> 100 µM (inactive)	> 100 µM (inactive)	> 79.1 µM (inactive)
CC1=NN(C(=O)c2ccc(Cl)cc2)C(=O)/C1=C/c1cccc(O)c1	> 100 µM (inactive)	> 100 µM (inactive)	–	–	> 100 µM (inactive)	> 100 µM (inactive)	–	> 100 µM (inactive)	–
c1ccc2c3c([nH]c2c1)[C@H]1C2CCCCN2CN1CC3 (stereo partly specified)	> 100 µM (inactive)	47.8 µM (inactive)	> 100 µM (inactive)	> 100 µM (inactive)	> 100 µM (inactive)	> 100 µM (inactive)	> 100 µM (inactive)	94.4 µM (inactive)	> 100 µM (inactive)
c1cc(-c2cn3ccsc3n2)ccn1	> 100 µM (inactive)	> 66.5 µM (inactive)	32.7 µM (inactive)	> 100 µM (inactive)	> 100 µM (inactive)	> 60.5 µM (inactive)	> 100 µM (inactive)	> 100 µM (inactive)	> 100 µM (inactive)
N#CC(NNC(=O)c1ccccc1O)c1cccc(O)c1 (stereo unspecified)	4.54 µM (inactive)	3.61 µM (inactive)	2.32 µM (inactive)	35.3 µM (inactive)	4.31 µM (inactive)	–	–	4.89 µM (inactive)	–
C=C(OC1C(C)=C2C(C1OC(=O)CCCCCCC)C(C)(OC(C)=O)CC(OC(=O)CCC)C1(O)C2OC(=O)C1(C)O)/C(C)=C/C (stereo unspecified)	0.843 µM (active)	0.0125 µM (active)	0.0125 µM (active)	0.0125 µM (active)	–	0.0125 µM (active)	–	0.015 µM (active)	0.348 µM (active)
O=C(O)/C=C\C(=O)Nc1ccc(S(=O)(=O)c2ccc(NC(=O)/C=C\C(=O)O)cc2)cc1	> 100 µM (inactive)	> 100 µM (inactive)	–	–	> 100 µM (inactive)	45 µM (inactive)	–	> 100 µM (inactive)	> 100 µM (inactive)
Cn1cc(NC(=O)c2cc(NC(=O)CCCCCCC(=O)Nc3cc(C(=O)Nc4cc(C(=O)NCCC(=N)N)n(C)c4)n(C)c3)cn2C)cc1C(=O)NCCC(=N)N	18.9 µM (inactive)	2.47 µM (inactive)	3.82 µM (inactive)	15.5 µM (inactive)	5.92 µM (inactive)	2.82 µM (inactive)	–	24.2 µM (inactive)	34.9 µM (inactive)
COc1ccc(-c2cc(C(=O)Nc3ccc(C)c(C)c3)nc(NC#N)n2)cc1	> 100 µM (inactive)	> 100 µM (inactive)	> 100 µM (inactive)	0.562 µM (active)	> 100 µM (inactive)	> 100 µM (inactive)	–	> 100 µM (inactive)	> 100 µM (inactive)
O=C(c1ccccc1)C(c1ccccc1)C1(O)C(=O)Nc2c(Cl)cc(Cl)cc21 (stereo unspecified)	17.7 µM (inactive)	16.5 µM (inactive)	27.4 µM (inactive)	14.9 µM (inactive)	11.4 µM (inactive)	–	18.9 µM (inactive)	24.7 µM (inactive)	> 100 µM (inactive)
O=C1c2ccccc2C(=O)c2c(/C=C\N3CCCCC3)ccnc21	1.39 µM (inactive)	0.813 µM (active)	2.3 µM (inactive)	1.25 µM (inactive)	0.377 µM (active)	0.237 µM (active)	8.22 µM (inactive)	18.7 µM (inactive)	11.1 µM (inactive)
N#Cc1cccc(-n2[nH]c(=O)ccc2=O)c1	> 100 µM (inactive)	> 100 µM (inactive)	> 100 µM (inactive)	–	> 100 µM (inactive)	> 100 µM (inactive)	–	–	–
N=C(N)C1=C(O)NC(=O)N(C2CCCCC2)C1	> 100 µM (inactive)	> 100 µM (inactive)	> 100 µM (inactive)	> 100 µM (inactive)	> 100 µM (inactive)	> 100 µM (inactive)	–	> 100 µM (inactive)	–
COc1cc(CC2C(=O)OCC2[C@@H](OC(C)=O)c2ccc3c(c2)OCO3)c(Br)c(OC)c1OC (stereo partly specified)	> 100 µM (inactive)	28 µM (inactive)	30.7 µM (inactive)	> 100 µM (inactive)	33.9 µM (inactive)	37.8 µM (inactive)	–	–	62.8 µM (inactive)
Cc1ccc(C(=O)O)cc1NC(=O)c1cc(/C=C/c2ccccc2)[nH]c(=S)n1	> 49.8 µM (inactive)	> 57 µM (inactive)	> 57.4 µM (inactive)	> 100 µM (inactive)	> 84.5 µM (inactive)	–	> 100 µM (inactive)	> 100 µM (inactive)	> 100 µM (inactive)
COc1cc2nncc(Sc3cnnc4ccccc34)c2cc1OC	19.6 µM (inactive)	9.95 µM (inactive)	29.7 µM (inactive)	16.5 µM (inactive)	9.79 µM (inactive)	30.7 µM (inactive)	23 µM (inactive)	6 µM (inactive)	–
O=C(N/C=C/C=C/Sc1ccccc1)OCc1ccccc1	14.1 µM (inactive)	16.6 µM (inactive)	16.6 µM (inactive)	28.1 µM (inactive)	17.1 µM (inactive)	17.2 µM (inactive)	19.1 µM (inactive)	40.2 µM (inactive)	20.4 µM (inactive)
C#CCn1c(=O)c2cccnc2n(CC#C)c1=O	> 100 µM (inactive)	–	> 100 µM (inactive)	> 100 µM (inactive)	> 100 µM (inactive)	–	–	> 100 µM (inactive)	> 100 µM (inactive)
Cc1ccc(S(=O)(=O)C(C#N)c2nc3ccccc3nc2N2CCOCC2)cc1 (stereo unspecified)	27.3 µM (inactive)	22.5 µM (inactive)	17.8 µM (inactive)	–	27.9 µM (inactive)	26.7 µM (inactive)	–	3.09 µM (inactive)	24.3 µM (inactive)
NNC(=O)C(=O)N/N=C1\CCCC1C(=O)CCC(=O)Nc1cccc(Cl)c1 (stereo unspecified)	> 100 µM (inactive)	> 100 µM (inactive)	–	> 100 µM (inactive)	> 100 µM (inactive)	> 100 µM (inactive)	> 100 µM (inactive)	> 100 µM (inactive)	> 100 µM (inactive)
O=Cc1c[nH]c2c(=O)[nH]cnc12	> 100 µM (inactive)	> 100 µM (inactive)	–	> 100 µM (inactive)	> 100 µM (inactive)	> 100 µM (inactive)	–	> 100 µM (inactive)	–
CCN(CC)CC1c2ccccc2C(CNc2ccccc2)N1C (stereo unspecified)	70.8 µM (inactive)	> 100 µM (inactive)	> 100 µM (inactive)	–	> 100 µM (inactive)	> 100 µM (inactive)	> 100 µM (inactive)	> 100 µM (inactive)	> 100 µM (inactive)
C/C(=N\[N+](C)(C)C)C(c1ccccc1)C1(c2ccccc2)C(c2ccccc2)=C1c1ccccc1 (stereo unspecified)	> 100 µM (inactive)	–	> 100 µM (inactive)	–	–	> 100 µM (inactive)	–	50.5 µM (inactive)	22.6 µM (inactive)
CCN(CC)CCOC(c1ccccc1)c1ccccc1.CCOC(=O)Nc1ccc(S(=O)(=O)NCCCl)cc1.CCOC(=O)Nc1ccc(S(=O)(=O)NCCCl)cc1.Nc1ccc(C(=O)O)c(O)c1	> 100 µM (inactive)	> 100 µM (inactive)	–	> 100 µM (inactive)	> 100 µM (inactive)	> 100 µM (inactive)	> 100 µM (inactive)	> 100 µM (inactive)	–
O.O=C([O-])c1ccccc1Nc1ccccc1C(=O)[O-].[Zn+2]	29.2 µM (inactive)	17.5 µM (inactive)	15.7 µM (inactive)	> 52.6 µM (inactive)	22.1 µM (inactive)	17.3 µM (inactive)	–	37.2 µM (inactive)	25.1 µM (inactive)
Cc1oc2c(C)c3oc(=O)cc(C)c3cc2c1CNC(=O)[C@@H]1OCCOCCOCCOCCOCCOC1C(=O)O (stereo partly specified)	> 100 µM (inactive)	> 100 µM (inactive)	> 100 µM (inactive)	> 100 µM (inactive)	8.15 µM (inactive)	> 100 µM (inactive)	36.1 µM (inactive)	> 100 µM (inactive)	> 10 µM (inactive)
NC(=O)c1nnn(Cc2cc(Cl)c(C(=O)c3ccc(Cl)cc3)c(Cl)c2)c1N [CARBOXYAMIDOTRIAZOLE]	> 9.1 µM (inactive)	6.1 µM (inactive)	> 9.1 µM (inactive)	> 9.1 µM (inactive)	> 9.1 µM (inactive)	> 9.1 µM (inactive)	11.7 µM (inactive)	> 9.1 µM (inactive)	> 9.1 µM (inactive)
